# Experimental data taken from ChEMBL document CHEMBL1128445, “Antiinflammatory 4,5-diarylpyrroles. 2. Activity as a function of cyclooxygenase-2 inhibition” (J Med Chem, 1995).
# Legend:
# Rattus norvegicus [1] = assay: In vivo effective dose required for antiinflammatory activity in rat adjuvant arthritis model; format: functional
# [2] = target: T1, Prostaglandin G/H synthase 1 (Ovis aries, UniProt P05979); assay: Tested for inhibitory activity against Prostaglandin G/H synthase 1 from ovine
# T1 sequence (P05979 whole entry): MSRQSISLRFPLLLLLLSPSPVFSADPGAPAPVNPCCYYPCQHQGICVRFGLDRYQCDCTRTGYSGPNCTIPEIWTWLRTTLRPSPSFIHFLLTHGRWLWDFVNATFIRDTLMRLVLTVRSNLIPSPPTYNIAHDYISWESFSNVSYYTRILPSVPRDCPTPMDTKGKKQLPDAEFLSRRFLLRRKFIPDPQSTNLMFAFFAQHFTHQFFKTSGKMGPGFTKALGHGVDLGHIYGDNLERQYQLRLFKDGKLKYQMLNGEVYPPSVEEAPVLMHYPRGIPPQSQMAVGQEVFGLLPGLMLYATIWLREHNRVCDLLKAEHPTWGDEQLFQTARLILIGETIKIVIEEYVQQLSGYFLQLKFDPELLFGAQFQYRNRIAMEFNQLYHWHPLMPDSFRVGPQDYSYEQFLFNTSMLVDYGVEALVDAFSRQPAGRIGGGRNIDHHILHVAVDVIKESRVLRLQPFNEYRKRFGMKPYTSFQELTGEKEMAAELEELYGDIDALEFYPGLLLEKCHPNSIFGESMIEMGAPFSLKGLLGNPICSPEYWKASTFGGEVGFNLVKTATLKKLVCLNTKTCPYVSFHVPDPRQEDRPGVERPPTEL
# Rattus norvegicus [3] = assay: The compound was tested for maximum blood level reached in rats at 15.9 uM/Kg after intravenous administration.; format: ADME, organism-based; design: dose 15.9 uM/Kg, route intravenous; conditions: in vivo, 15.9 µmol/kg
# Rattus norvegicus [4] = assay: The compound was tested for maximum blood level reached in rats at 15.9 uM/Kg after peroral administration.; format: ADME, organism-based; design: dose 15.9 uM/Kg, route oral; conditions: in vivo, po
SMILES,IC50 [2],Cmax (Rattus norvegicus [3]),Cmax (Rattus norvegicus [4]; 15.9 µmol/kg),Cmax (Rattus norvegicus [4]),ED50 (Rattus norvegicus [1])
CS(=O)(=O)c1ccc(-c2[nH]c(Br)cc2-c2ccc(F)cc2)cc1,132 µM,2 uM l-1,3 uM l-1,–,2.66 µM
CS(=O)(=O)c1ccc(-c2[nH]c(Br)c(Cl)c2-c2ccc(F)cc2)cc1,–,–,–,–,9.98 µM
CC(=O)n1c(Br)cc(-c2ccc(F)cc2)c1-c1ccc(S(C)(=O)=O)cc1,–,–,–,–,82.95 µM
CS(=O)(=O)c1ccc(-c2[nH]c(I)cc2-c2ccc(F)cc2)cc1,> 300 µM,–,–,–,49.86 µM
Cn1c(Br)c(Br)c(-c2ccc(F)cc2)c1-c1ccc(S(C)(=O)=O)cc1,767 µM,–,–,–,8.54 µM
CS(=O)(=O)c1ccc(-c2[nH]c(C(=O)C(F)(F)F)cc2-c2ccc(F)cc2)cc1,580 µM,–,–,–,47.16 µM
Cn1c(Br)cc(-c2ccc(F)cc2)c1-c1ccc(S(C)(=O)=O)cc1,516 µM,2.9 uM l-1,1.5 uM l-1,–,4.16 µM
CS(=O)(=O)c1ccc(-c2[nH]c(Cl)c(Br)c2-c2ccc(F)cc2)cc1,44 µM,–,–,–,7.93 µM
CC(C)(C)OC(=O)n1c(Br)cc(-c2ccc(F)cc2)c1-c1ccc(S(C)(=O)=O)cc1,> 300 µM,–,–,–,32 µM
CS(=O)(=O)c1ccc(-c2[nH]c([N+](=O)[O-])cc2-c2ccc(F)cc2)cc1,–,–,–,–,24.97 µM
CSc1cc(-c2ccc(F)cc2)c(-c2ccc(S(C)(=O)=O)cc2)[nH]1,36 µM,–,–,–,4.89 µM
CS(=O)(=O)c1ccc(-c2[nH]c(C#N)cc2-c2ccc(F)cc2)cc1,–,4.1 uM l-1,2.9 uM l-1,–,3.82 µM
CC(=O)Oc1ccccc1C(=O)O [ASPIRIN],–,–,–,–,1942.7 µM
CC(C)Cc1ccc(C(C)C(=O)O)cc1 (stereo not given) [IBUPROFEN],–,–,–,–,484.8 µM
COc1ccc2c(c1)c(CC(=O)O)c(C)n2C(=O)c1ccc(Cl)cc1 [INDOMETHACIN],–,–,–,–,0.84 µM
CCCCC1C(=O)N(c2ccccc2)N(c2ccccc2)C1=O [PHENYLBUTAZONE],384 µM,–,–,–,32.4 µM
CN1C(C(=O)Nc2ccccn2)=C(O)c2ccccc2S1(=O)=O [PIROXICAM],–,–,–,–,1.3 µM

# Now from value to compound, other results behind:
IC50 [2],Cmax (Rattus norvegicus [3]),Cmax (Rattus norvegicus [4]; 15.9 µmol/kg),Cmax (Rattus norvegicus [4]),SMILES,ED50 (Rattus norvegicus [1])
219 µM,–,–,–,CS(=O)(=O)c1ccc(-c2[nH]c(SC#N)cc2-c2ccc(F)cc2)cc1,10.47 µM
127 µM,–,–,–,CS(=O)(=O)c1ccc(-c2[nH]c(I)c(I)c2-c2ccc(F)cc2)cc1,72.82 µM
650 µM,–,–,–,Cn1c(Cl)c(Cl)c(-c2ccc(F)cc2)c1-c1ccc(S(C)(=O)=O)cc1,12.55 µM
> 300 µM,–,–,–,Cn1ccc(-c2ccc(F)cc2)c1-c1ccc(S(C)(=O)=O)cc1,>303 µM
> 300 µM,–,–,–,CS(=O)(=O)c1ccc(-c2[nH]c(S(C)(=O)=O)cc2-c2ccc(F)cc2)cc1,93.02 µM
20 µM,–,–,–,CS(=O)(=O)c1ccc(-c2[nH]c(Cl)c(Cl)c2-c2ccc(F)cc2)cc1,3.9 µM
373 µM,–,–,< 0.1 uM l-1,CS(=O)(=O)c1ccc(-c2[nH]ccc2-c2ccc(F)cc2)cc1,>317 µM
94 µM,1.4 uM l-1,2.3 uM l-1,–,CS(=O)(=O)c1ccc(-c2[nH]c(Cl)cc2-c2ccc(F)cc2)cc1,–
